The nature of data set [1]: log P by HPLC on reversed-phase column (C 18), EEC Directive 79/831 Annex V.A8. In kind it is physicochemical. Particulars: HPLC on reversed-phase column (C 18); 40° C.; 0.1% aqueous formic acid and acetonitrile; linear gradient 10% to 90% acetonitrile. How it is done:
In table 1, the log P values were determined in accordance with EEC Directive 79/831 Annex V.A8 by HPLC (High Performance Liquid Chromatography) on a reversed-phase column (C 18), using the method described below: Temperature: 40° C.; Mobile phases: 0.1% aqueous formic acid and acetonitrile; linear gradient from 10% acetonitrile to 90% acetonitrile. Calibration was carried out using unbranched alkan-2-ones (comprising 3 to 16 carbon atoms) with known log P values (determination of the log P values by the retention times using linear interpolation between two successive alkanones). lambda-max-values were determined using UV-spectra from 200 nm to 400 nm and the peak values of the chromatographic signals.

Another data set concerns Alternaria solani. Description: In vivo preventive test on Alternaria solani (tomato). To be noted: 500 ppm of active ingredient, evaluated 7 days after inoculation. On the procedure: Solvent: 49 parts by weight of N,N-dimethylformamide Emulsifier: 1 part by weight of Alkylarylpolyglycolether To produce a suitable preparation of active compound, 1 part by weight of active compound is mixed with the stated amounts of solvent and emulsifier, and the concentrate is diluted with water to the desired concentration. To test for preventive activity, young plants are sprayed with the preparation of active compound at the stated rate of application. One day after this treatment, the plants are inoculated with an aqueous spore suspension of Alternaria solani. The plants remain for one day in an incubation cabinet at approximately 22° C. and a relative atmospheric humidity of 100%. Then the plants are placed in an incubation cabinet at approximately 20° C. and a relative atmospheric humidity of 96%. The test is evaluated 7 days after the inoculation. 0% means an efficacy which corresponds to that of the untreated control while an efficacy of 100% means that no disease is observed.

A further data set concerns Pyrenophora teres. The experiment in a line: In vivo preventive test on Pyrenophora teres (barley). To be noted: 500 ppm of active ingredient, evaluated 7-9 days after inoculation. On the procedure:
Solvent: 49 parts by weight of N,N-dimethylformamide Emulsifier: 1 part by weight of alkylaryl polyglycol ether To produce a suitable preparation of active compound, 1 part by weight of active compound is mixed with the stated amounts of solvent and emulsifier, and the concentrate is diluted with water to the desired concentration. To test for preventive activity, young plants are sprayed with the preparation of active compound at the stated rate of application. One day after this treatment, the plants are inoculated with an aqueous spore suspension of Pyrenophora teres. The plants remain for 48 hours in an incubation cabinet at 22° C. and a relative atmospheric humidity of 100%. Then the plants are placed in a greenhouse at a temperature of approximately 20° C. and a relative atmospheric humidity of approximately 80%. The test is evaluated 7-9 days after the inoculation. 0% means an efficacy which corresponds to that of the untreated control while an efficacy of 100% means that no disease is observed.

As usually defined, the logP is a log measure of how a compound divides between an organic and an aqueous phase. A lower logP goes with a more hydrophilic compound. In turn, `CCc1nn(C)c(F)c1C(=O)N1CCCCC1c1cccc(Br)c1` (stereo not drawn) [Example 94] registered a logP in data set [1] of 3.44. Besides, the Efficacy is listed as 100% with Alternaria solani and 70% with Pyrenophora teres.

In the case of `COc1ccccc1CC1CCCCN1C(=S)c1c(C(F)F)nn(C)c1F` (stereo not drawn) [Example 160], in data set [1], the log partition coefficient (logP) is given as 3.87. In addition, the Efficacy in the data set with Alternaria solani was 90%; in the data set with Pyrenophora teres, 100%.

`Cc1ccccc1C1CCCCN1C(=O)c1c(C(F)F)nn(C)c1Cl` (stereo not drawn) [Example 5] displayed a logP in data set [1] of 3.37. Moreover, the Efficacy is reported as 90% with Alternaria solani and 95% in the data set on Pyrenophora teres.

`Cn1nc(C(F)F)c(C(=O)N2CCCCC2CCOc2ccc3ccccc3c2)c1Cl` (stereo not drawn) [Example 190] gave a logP in data set [1] of 4.09. Besides, the Efficacy is 90% with Alternaria solani and 95% with Pyrenophora teres.

The compound `Cc1cc(C(=O)N2CCCCC2Cc2ccc(F)cc2)c(C)o1` (stereo not drawn) [Example 155] gave a logP in data set [1] of 3.57. The same compound showed an Efficacy in the data set on Alternaria solani of 78%.

The compound `CCC(c1ccccc1)C1CCCCN1C(=O)c1c(C(F)F)nn(C)c1Cl` (stereo not drawn) [Example 135] had a logP in data set [1] of 3.87. Further, the figures for the Efficacy in the data set on Alternaria solani and with Pyrenophora teres were 95% and 94%, respectively.

Compound `Cc1nn(C)c(F)c1C(=O)N1CCCCC1c1ccc(Br)s1` (stereo not drawn) [Example 124] registered a logP in data set [1] of 3.13. In addition, the Efficacy was found to be 95% in the data set with Alternaria solani and 100% in the data set on Pyrenophora teres.

Consider `Cn1nc(C(F)F)c(C(=O)N2CCCCC2Cc2cccc(F)c2)c1F` (stereo not drawn) [Example 153], for which, in data set [1], the lipophilicity (logP) amounted to 3.13. Besides, the Efficacy in the data set with Alternaria solani and in the data set on Pyrenophora teres was 100% throughout.

The compound `Cn1nc(C(F)F)c(C(=O)N2CCCCC2c2ccc(Cl)cc2)c1Cl` (stereo not drawn) [Example 55] registered a logP in data set [1] of 3.67. Further, the Efficacy in the data set on Alternaria solani worked out at 95%; in the data set on Pyrenophora teres, 80%.

Regarding `Cn1nc(C(F)F)c(C(=O)N2CCCCC2CCOc2ccc(C(F)(F)F)cn2)c1Cl` (stereo not drawn) [Example 195], the lipophilicity (logP) in data set [1] came out at 3.74. For the same compound, the Efficacy with Alternaria solani worked out at 100%; with Pyrenophora teres, 95%.

Turning to `Cc1nc(C(F)F)c(C(=O)N2CCCCC2Cc2cccc(F)c2)s1` (stereo not drawn) [Example 151], the logP in data set [1] worked out at 3.19. Further, the Efficacy with Alternaria solani is listed as 95%.

The compound `Cc1nn(C)c(F)c1C(=O)N1CCCCC1c1ccc2c(c1)OCO2` (stereo not drawn) [Example 60] showed a logP in data set [1] of 2.44. The Efficacy with Alternaria solani is recorded as 94%; in the data set on Pyrenophora teres, 80%.

In data set [1], `Cc1cc(C)cc(C2CCCCN2C(=O)c2c(C(F)(F)F)cn(C)c2F)c1` (stereo not drawn) [Example 34] gave a logP of 4.27. The Efficacy in the data set on Alternaria solani worked out at 90%; in the data set with Pyrenophora teres, 100%.

`Cn1nc(C(F)F)c(C(=O)N2CCCCC2CCOc2ccc(F)cc2F)c1F` (stereo not drawn) [Example 182] registered a log partition coefficient (logP) in data set [1] of 3.29. Further, the Efficacy in the data set on Alternaria solani and in the data set with Pyrenophora teres was 100% throughout.

`Cc1cc(C(=O)N2CCCCC2c2cccc(Cl)c2Cl)c(C)o1` (stereo not drawn) [Example 71] displayed a lipophilicity (logP) in data set [1] of 4.29. Besides, the Efficacy in the data set on Alternaria solani and with Pyrenophora teres was 80% in each case.

In the case of `Cn1nc(C(F)F)c(C(=O)N2CCCCC2CCc2cccs2)c1F` (stereo not drawn) [Example 194], the logP in data set [1] is 3.25. Besides, the Efficacy in the data set with Alternaria solani and in the data set on Pyrenophora teres was 100% throughout.

Turning to `Cc1nc(C(F)F)c(C(=O)N2CCCCC2Cc2ccccc2C)s1` (stereo not drawn) [Example 142], the logP in data set [1] is on record as 3.50. The results for the Efficacy in the data set on Alternaria solani and in the data set on Pyrenophora teres were 94% and 95%, respectively.

The compound `Cn1nc(C(F)F)c(C(=O)N2CCCCC2CCOc2ccc(-c3ccccc3)cc2)c1Cl` (stereo not drawn) [Example 188] showed a logP in data set [1] of 4.49. The results for the Efficacy in the data set with Alternaria solani and in the data set on Pyrenophora teres were 70% and 95%, respectively.

The compound `Cn1nc(C(F)F)c(C(=O)N2CCCCC2CCc2ccccc2)c1F` (stereo not drawn) [Example 177] returned a logP in data set [1] of 3.37. For the same compound, the Efficacy with Alternaria solani is recorded as 100%; in the data set on Pyrenophora teres, 95%.

`Cn1nc(C(F)F)c(C(=O)N2CCCCC2CCOc2ccc(F)cc2F)c1Cl` (stereo not drawn) [Example 183] had a logP in data set [1] of 3.46. Further, the Efficacy was found to be 95% in the data set on Alternaria solani and 100% in the data set with Pyrenophora teres.

In data set [1], `Cn1nc(C(F)F)c(C(=O)N2CCCCC2c2ccc(Br)cc2)c1F` (stereo not drawn) [Example 104] returned a log partition coefficient (logP) of 3.60. Moreover, the Efficacy is 100% with Alternaria solani and 95% in the data set on Pyrenophora teres.

Compound `Cc1cc(C(=O)N2CCCCC2Cc2ccccc2)c(C)o1` (stereo not drawn) [Example 132] gave a lipophilicity (logP) in data set [1] of 3.58. For the same compound, the Efficacy with Alternaria solani and with Pyrenophora teres was 90% in each case.

`Cc1cc(C)cc(OCCC2CCCCN2C(=O)c2c(C(F)F)nn(C)c2Cl)c1` (stereo not drawn) [Example 180]: in data set [1], the logP worked out at 4.11. Further, the Efficacy in the data set on Alternaria solani and in the data set on Pyrenophora teres was 80% throughout.

Turning to `Cc1ccc(C2CCCCN2C(=O)c2c(C(F)F)nn(C)c2Cl)cc1C` (stereo not drawn) [Example 8], in data set [1], the logP worked out at 3.87. Moreover, the Efficacy in the data set with Alternaria solani worked out at 94%; in the data set on Pyrenophora teres, 90%.

`Cc1ccc(CC2CCCCN2C(=O)c2cc(C)oc2C)cc1` (stereo not drawn) [Example 146]: in data set [1], the logP stood at 3.99. The Efficacy in the data set with Alternaria solani stood at 95%.

Consider `Cn1nc(C(F)F)c(C(=O)N2CCCCC2CCOc2ccccc2-c2ccccc2)c1Cl` (stereo not drawn) [Example 186], for which the logP in data set [1] turned out to be 4.39. The Efficacy is 80% with Alternaria solani and 95% in the data set on Pyrenophora teres.

The compound `Cc1cc(C)cc(OCCC2CCCCN2C(=O)c2c(C(F)F)nn(C)c2F)c1` (stereo not drawn) [Example 181] gave a log partition coefficient (logP) in data set [1] of 3.92. The Efficacy in the data set on Alternaria solani and with Pyrenophora teres was 100% throughout.

Compound `CCc1nn(C)c(F)c1C(=O)N1CCCCC1c1cccc(Oc2ccccc2)c1` (stereo not drawn) [Example 112] displayed a lipophilicity (logP) in data set [1] of 3.96. The compound also yielded an Efficacy in the data set with Alternaria solani of 94%.

`Cn1nc(C(F)F)c(C(=O)N2CCCCC2Cc2cccc(C(F)(F)F)c2)c1F` (stereo not drawn) [Example 169] came in with a log partition coefficient (logP) in data set [1] of 3.59. Moreover, the Efficacy in the data set on Alternaria solani and in the data set on Pyrenophora teres was 100% each time.

On to `Cc1cccc(CC2CCCCN2C(=O)c2cc(C)oc2C)c1` (stereo not drawn) [Example 143], for which, in data set [1], the logP is listed as 3.96. In the data set with Alternaria solani, the Efficacy was determined as 80%.

Regarding `Cc1cc(C(=O)N2CCCCC2c2cccc(I)c2)c(C)o1` (stereo not drawn) [Example 116], in data set [1], the logP was 4.36. The same compound gave an Efficacy with Alternaria solani of 78%.

`CCc1noc(C)c1C(=O)N1CCCCC1c1cccc(Oc2ccccc2)c1` (stereo not drawn) [Example 110] displayed a lipophilicity (logP) in data set [1] of 4.16. The Efficacy in the data set with Alternaria solani was 78%.

`CCc1nn(C)c(F)c1C(=O)N1CCCCC1c1ccc(Br)cc1` (stereo not drawn) [Example 102] yielded a logP in data set [1] of 3.51. In the data set on Pyrenophora teres, this compound displayed an Efficacy of 100%.

In the case of `COc1ccccc1CC1CCCCN1C(=O)c1sc(C)nc1C(F)F` (stereo not drawn) [Example 159], the logP in data set [1] is on record as 3.33. The compound also came in with an Efficacy with Pyrenophora teres of 90%.

In turn, `Cc1cc(C(=O)N2CCCCC2c2ccc3c(c2)OCO3)c(C)o1` (stereo not drawn) [Example 58] showed a log partition coefficient (logP) in data set [1] of 3.33. In the data set on Alternaria solani, the Efficacy amounted to 78%.

Turning to `Cc1cc(C(=O)N2CCCCC2Cc2ccccc2C)c(C)o1` (stereo not drawn) [Example 141], in data set [1], the logP came to 3.87. Besides, the Efficacy in the data set on Alternaria solani turned out to be 90%.

`Cc1cc(C(=O)N2CCCCC2c2ccc(Br)cc2)c(C)o1` (stereo not drawn) [Example 100] showed a logP in data set [1] of 4.16. This compound had an Efficacy in the data set on Pyrenophora teres of 70%.
